Assay [1] relates to antibodies in the antisera. It counts as binding, Balb/c mice.
Assay [2] relates to antibodies in the antisera. Type of assay: binding, Balb/c mice. This is another data set of the same source.

Several values for one entry are separate records, joined by “and”; a condition that tells them apart may be missing. Equal values may be shown once.

Consider aflatoxin G2, for which the Absorbance in assay [1] was 1.03 and 1.04 and 1.05 and 1.01 and 1.09 and 1.02 and 1.10.

As for `COc1cc2c(c3oc4cccc(O)c4c(=O)c13)[C@@H]1C=CO[C@@H]1O2` [aflatoxin biosynthetic precursor ST, Sterigmatocystin], the “IC50 value of the antibody for the aflatoxin biosynthetic precursor ST” value in assay [2] is 0.41 ng/mL.

Regarding aflatoxin B2, in assay [1], the Absorbance is 1.08 and 1.06 and 0.99 and 1.07 and 1.01 and 1.02 and 1.04.

For aflatoxin G1, in assay [1], the Absorbance is 1.07 and 1.05 and 1.01 and 0.98 and 1.04 and 1.09 and 1.11.

Values taken from patent publication US9718836B2 (priority 2014, dated 2017).
